# From ChEMBL document CHEMBL1201862, “PubChem BioAssay data set” (2004)
# The source made the active and inactive calls.
# What was measured:
# [1] = molecular target: Delta-type opioid receptor (Homo sapiens, UniProt P41143); assay: Counterscreen for agonists of heterodimerization of the mu 1 (OPRM1) and delta 1 (OPRD1) opioid receptors: Luminescence-based cell-based high throughput dose response assay to identify agonists of OPRD1 homodimerization. [Related pubchem assays (depositor defined):AID504326, AID504355, AID504692, AID504904, AID504905]; format: functional
# [2] = molecular target: T1, Sentrin-specific protease 6 (Homo sapiens, UniProt Q9GZR1); format: functional;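 further: Luminescence-based dose-response confirmatory assay of SENP6 inhibition, following up an ultra-high-throughput screen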
# T1 sequence (Q9GZR1 whole entry): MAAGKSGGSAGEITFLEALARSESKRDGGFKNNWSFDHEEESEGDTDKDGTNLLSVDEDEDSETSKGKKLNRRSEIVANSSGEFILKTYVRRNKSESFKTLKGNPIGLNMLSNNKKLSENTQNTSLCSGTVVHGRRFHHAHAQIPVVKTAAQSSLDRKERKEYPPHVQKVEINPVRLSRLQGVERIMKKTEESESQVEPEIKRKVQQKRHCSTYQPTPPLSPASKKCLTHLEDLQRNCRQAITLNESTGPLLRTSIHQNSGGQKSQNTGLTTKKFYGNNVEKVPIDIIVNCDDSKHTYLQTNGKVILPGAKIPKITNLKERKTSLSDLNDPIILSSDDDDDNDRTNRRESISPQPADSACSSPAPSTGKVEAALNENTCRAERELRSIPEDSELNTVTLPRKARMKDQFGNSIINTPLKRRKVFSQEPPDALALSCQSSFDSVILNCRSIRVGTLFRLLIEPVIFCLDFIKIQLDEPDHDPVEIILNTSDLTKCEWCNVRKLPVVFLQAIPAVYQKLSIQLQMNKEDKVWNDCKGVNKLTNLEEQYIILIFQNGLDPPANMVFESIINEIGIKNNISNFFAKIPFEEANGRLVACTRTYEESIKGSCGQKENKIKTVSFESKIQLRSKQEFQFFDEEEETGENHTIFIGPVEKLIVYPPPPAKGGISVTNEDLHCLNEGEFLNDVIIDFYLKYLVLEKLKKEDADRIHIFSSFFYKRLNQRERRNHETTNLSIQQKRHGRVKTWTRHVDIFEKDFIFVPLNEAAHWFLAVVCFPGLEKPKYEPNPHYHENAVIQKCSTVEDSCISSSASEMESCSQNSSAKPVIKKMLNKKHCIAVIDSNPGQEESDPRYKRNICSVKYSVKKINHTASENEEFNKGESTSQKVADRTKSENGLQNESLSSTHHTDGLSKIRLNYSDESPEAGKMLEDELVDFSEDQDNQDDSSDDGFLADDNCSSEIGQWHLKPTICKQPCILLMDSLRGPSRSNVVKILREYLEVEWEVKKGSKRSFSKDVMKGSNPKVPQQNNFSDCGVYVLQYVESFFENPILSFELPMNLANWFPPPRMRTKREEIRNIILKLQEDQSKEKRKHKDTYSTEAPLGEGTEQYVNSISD
# [3] = molecular target: Voltage-gated N-type calcium channel alpha-1B subunit/Amyloid beta A4 precursor protein-binding family A member 1 (Homo sapiens, UniProt Q00975+Q02410); format: protein assay
# Insulin-degrading enzyme = molecular target: T2, Insulin-degrading enzyme (Homo sapiens, UniProt P14735); assay: activators of recombinant IDE enzyme, dose response, counter-screen for IDE activator project, biochemical, fluorescence polarization (AID 588681)
# T2 sequence (P14735 whole entry): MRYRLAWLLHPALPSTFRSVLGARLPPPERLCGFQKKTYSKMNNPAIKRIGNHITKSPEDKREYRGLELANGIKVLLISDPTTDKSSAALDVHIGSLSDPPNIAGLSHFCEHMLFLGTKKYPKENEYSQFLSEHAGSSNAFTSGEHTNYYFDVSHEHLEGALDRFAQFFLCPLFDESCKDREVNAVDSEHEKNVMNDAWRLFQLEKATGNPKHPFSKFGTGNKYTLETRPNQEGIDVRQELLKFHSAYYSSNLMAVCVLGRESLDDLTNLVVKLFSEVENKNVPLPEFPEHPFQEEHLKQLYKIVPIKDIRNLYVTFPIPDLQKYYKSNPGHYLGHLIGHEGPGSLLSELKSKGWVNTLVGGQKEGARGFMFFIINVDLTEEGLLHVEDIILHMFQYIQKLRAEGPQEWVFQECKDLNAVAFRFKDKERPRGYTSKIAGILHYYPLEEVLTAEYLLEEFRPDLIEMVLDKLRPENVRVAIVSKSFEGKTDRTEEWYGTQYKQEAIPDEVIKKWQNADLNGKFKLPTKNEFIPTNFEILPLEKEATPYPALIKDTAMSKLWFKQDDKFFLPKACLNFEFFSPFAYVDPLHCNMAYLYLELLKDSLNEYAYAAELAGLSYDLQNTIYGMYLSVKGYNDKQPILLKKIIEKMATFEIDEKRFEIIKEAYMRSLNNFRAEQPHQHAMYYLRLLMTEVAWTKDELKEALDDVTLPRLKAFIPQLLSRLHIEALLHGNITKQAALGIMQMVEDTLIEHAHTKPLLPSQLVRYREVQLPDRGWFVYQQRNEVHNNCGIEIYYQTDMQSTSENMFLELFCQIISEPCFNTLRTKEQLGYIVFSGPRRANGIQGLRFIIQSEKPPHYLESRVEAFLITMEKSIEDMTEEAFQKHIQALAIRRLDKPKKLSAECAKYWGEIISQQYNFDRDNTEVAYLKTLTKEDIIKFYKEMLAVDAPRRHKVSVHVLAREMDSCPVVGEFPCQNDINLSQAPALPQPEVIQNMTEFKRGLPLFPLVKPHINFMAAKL
# Sequence of Voltage-gated N-type calcium channel alpha-1B subunit/Amyloid beta A4 precursor protein-binding family A member 1 (Q00975 whole entry): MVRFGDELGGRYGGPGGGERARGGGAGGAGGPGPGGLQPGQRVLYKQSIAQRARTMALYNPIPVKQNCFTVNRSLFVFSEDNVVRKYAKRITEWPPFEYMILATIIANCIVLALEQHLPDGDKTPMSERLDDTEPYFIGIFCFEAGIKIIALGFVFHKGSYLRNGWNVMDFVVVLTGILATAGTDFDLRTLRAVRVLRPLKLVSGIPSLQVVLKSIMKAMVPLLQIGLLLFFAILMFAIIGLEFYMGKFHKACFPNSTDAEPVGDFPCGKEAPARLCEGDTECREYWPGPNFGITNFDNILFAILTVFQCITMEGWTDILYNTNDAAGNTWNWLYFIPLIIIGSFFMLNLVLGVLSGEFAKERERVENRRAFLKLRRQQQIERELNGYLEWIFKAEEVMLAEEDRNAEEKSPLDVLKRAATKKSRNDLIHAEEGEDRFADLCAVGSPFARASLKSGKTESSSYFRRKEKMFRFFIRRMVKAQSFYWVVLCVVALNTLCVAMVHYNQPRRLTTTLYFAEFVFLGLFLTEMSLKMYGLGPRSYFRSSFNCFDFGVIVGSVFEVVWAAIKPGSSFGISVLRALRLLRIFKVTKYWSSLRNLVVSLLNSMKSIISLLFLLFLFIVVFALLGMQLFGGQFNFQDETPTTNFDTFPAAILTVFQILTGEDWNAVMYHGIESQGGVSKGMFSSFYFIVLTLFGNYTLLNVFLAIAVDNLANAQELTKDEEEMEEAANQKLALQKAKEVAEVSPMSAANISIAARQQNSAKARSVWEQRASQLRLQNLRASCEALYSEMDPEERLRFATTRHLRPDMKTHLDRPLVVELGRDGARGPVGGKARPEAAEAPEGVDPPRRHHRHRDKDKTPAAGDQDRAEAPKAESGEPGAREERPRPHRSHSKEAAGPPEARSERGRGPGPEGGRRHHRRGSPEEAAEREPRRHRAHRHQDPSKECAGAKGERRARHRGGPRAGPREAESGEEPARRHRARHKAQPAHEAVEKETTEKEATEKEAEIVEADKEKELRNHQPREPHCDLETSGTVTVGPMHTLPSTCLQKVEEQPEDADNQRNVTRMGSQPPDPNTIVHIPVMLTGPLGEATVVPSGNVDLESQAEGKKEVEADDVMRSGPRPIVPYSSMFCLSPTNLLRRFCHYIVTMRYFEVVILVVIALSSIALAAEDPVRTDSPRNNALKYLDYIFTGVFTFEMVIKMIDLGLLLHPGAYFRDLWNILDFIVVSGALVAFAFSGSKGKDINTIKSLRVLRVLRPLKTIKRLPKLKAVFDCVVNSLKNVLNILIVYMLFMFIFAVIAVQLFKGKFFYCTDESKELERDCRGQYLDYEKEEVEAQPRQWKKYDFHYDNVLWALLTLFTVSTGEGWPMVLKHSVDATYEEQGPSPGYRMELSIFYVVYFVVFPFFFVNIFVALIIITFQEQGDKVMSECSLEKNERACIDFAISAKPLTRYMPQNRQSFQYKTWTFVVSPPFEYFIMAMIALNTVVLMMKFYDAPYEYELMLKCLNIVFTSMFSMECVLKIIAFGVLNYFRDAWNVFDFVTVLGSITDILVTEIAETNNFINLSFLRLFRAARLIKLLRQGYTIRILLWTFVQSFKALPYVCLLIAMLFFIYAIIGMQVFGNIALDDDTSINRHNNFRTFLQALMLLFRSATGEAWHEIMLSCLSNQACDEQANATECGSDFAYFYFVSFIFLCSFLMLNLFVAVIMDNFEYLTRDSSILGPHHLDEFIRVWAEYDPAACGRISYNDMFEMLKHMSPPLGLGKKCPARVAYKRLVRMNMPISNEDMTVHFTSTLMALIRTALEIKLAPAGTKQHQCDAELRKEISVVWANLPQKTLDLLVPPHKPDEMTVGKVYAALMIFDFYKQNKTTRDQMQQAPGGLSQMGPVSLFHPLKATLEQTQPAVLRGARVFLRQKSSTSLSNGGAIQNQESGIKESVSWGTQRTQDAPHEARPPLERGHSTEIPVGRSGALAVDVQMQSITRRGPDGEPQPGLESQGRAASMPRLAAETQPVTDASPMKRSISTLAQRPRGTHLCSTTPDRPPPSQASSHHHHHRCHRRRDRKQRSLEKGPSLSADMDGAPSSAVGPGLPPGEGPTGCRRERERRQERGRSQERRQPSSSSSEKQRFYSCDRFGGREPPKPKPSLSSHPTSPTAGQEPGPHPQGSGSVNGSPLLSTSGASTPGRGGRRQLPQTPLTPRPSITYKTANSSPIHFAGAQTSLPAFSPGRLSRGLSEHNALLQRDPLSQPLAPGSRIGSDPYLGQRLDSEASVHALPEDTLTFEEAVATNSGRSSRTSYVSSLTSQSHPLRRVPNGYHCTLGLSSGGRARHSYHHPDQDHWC
# Sequence of Voltage-gated N-type calcium channel alpha-1B subunit/Amyloid beta A4 precursor protein-binding family A member 1 (Q02410 whole entry): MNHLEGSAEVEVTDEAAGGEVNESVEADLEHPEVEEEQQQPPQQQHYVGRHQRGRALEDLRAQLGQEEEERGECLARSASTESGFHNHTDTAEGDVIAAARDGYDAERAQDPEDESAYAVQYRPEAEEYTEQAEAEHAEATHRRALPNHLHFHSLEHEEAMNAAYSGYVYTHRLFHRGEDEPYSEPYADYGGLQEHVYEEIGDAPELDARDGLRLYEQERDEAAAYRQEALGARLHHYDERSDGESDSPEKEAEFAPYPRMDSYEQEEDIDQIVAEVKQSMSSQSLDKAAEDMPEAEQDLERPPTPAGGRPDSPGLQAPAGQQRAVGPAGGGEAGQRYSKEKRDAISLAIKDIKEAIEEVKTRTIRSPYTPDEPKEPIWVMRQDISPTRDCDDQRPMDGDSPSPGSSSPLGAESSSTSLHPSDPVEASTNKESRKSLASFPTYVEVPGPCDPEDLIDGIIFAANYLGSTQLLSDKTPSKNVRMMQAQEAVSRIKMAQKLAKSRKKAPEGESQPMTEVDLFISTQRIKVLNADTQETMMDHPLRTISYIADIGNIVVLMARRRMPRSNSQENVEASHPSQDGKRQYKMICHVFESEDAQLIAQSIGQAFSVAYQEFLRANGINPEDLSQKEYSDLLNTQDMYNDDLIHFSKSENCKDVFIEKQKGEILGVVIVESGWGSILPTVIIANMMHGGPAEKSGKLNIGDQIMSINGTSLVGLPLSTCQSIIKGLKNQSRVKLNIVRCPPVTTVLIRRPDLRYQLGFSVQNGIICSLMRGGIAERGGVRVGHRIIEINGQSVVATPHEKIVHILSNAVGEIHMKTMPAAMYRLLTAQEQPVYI
# Sequence of Delta-type opioid receptor (P41143 whole entry): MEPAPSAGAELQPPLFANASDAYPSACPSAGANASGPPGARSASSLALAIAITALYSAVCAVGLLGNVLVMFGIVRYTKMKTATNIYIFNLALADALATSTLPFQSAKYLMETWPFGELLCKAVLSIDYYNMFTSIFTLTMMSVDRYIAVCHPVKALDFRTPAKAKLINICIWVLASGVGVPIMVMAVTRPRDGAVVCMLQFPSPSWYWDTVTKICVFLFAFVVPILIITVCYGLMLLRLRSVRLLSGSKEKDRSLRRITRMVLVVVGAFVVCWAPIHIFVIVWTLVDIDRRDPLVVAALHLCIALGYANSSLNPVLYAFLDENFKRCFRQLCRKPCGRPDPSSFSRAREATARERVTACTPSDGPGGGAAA
compound,measurement,setting,value
CCCCCCCCCCOC(=O)C[n+]1c(COc2ccccc2C)n(C)c2ccccc21,EC50,[1],> 92.5 µM (inactive)
Oc1nc(Nc2ccccc2)cc2ccccc12,IC50,[2],0.345 µM (active)
COc1cc(OC)c(-c2c3cc(O)c(=O)cc-3oc3cc(O)c(O)cc23)cc1OC,IC50,[3],12.5 µM (active)
same,EC50,Insulin-degrading enzyme,> 54.7 µM (inactive)
